Values joined by “and” are separate entries in the source; they are usually repeats but may differ in a detail not shown here. Equal entries are not always repeated.
Columns and labels:
[1] = system: Oryctolagus sp.; conditions: acute
[2] = system: Cavia porcellus; conditions: acute; oral; Guinea Pig
[3] = system: Rattus norvegicus; conditions: oral
[4] = system: Mus musculus
[5] = system: Rattus norvegicus; conditions: subchronic, oral
[6] = system: Oryctolagus sp.; assay: LD0; higher = less toxic; conditions: acute; dermal
[7] = system: Cavia porcellus; assay: LD0; higher = less toxic; conditions: acute; injection; subcutaneous; Guinea Pig
[8] = system: Rattus norvegicus; assay: LD0; higher = less toxic; conditions: acute; injection; subcutaneous
[9] = system: Canidae; assay: LD0; higher = less toxic; conditions: acute; injection; intravenous; Dog Other
[10] = system: Mus musculus; assay: LD100; higher = less toxic; conditions: acute
[11] = system: Oryctolagus sp.; assay: LD40; higher = less toxic; conditions: acute; dermal; occlusive; New Zealand
[12] = system: Oryctolagus sp.; conditions: uterotrophic; duration: 12 days; oral; Active
[13] = system: Rattus norvegicus; conditions: uterotrophic, Active
[14] = system: Mus musculus; conditions: uterotrophic, Active
[15] = system: Sus scrofa; conditions: reproduction developmental; duration: 15 days; oral; diet; F; Not specified; Increased inter-estrus interval, concentrations of progesterone and prolonged maintenance of corpora lutea
[16] = system: Canidae; conditions: subchronic; duration: 13 weeks; oral; diet; F; Beagle
[17] = system: Homo sapiens; conditions: clinical; duration: 16 days; oral; M/F; plasma cholinesterase inhibition
[18] = system: Rattus norvegicus; assay: LD5; higher = less toxic; conditions: developmental; oral; drinking water; M/F; reduced pup body weight
[19] = system: Rattus norvegicus; conditions: developmental; oral; drinking water; Fetus: Decreased birth weight
[20] = system: Mus musculus; conditions: developmental; duration: 10 days; inhalation; intermittent; Fetus: Decreased birth weight
[21] = system: Rattus norvegicus; conditions: repeat dose other; oral
[22] = system: Homo sapiens; conditions: clinical; duration: 6 hours; inhalation; M/F; neurological
[23] = system: Rattus norvegicus; conditions: developmental; oral; drinking water; M/F; reduced pup body weight
[24] = system: Mus musculus; conditions: developmental; inhalation; M/F; developmental toxicity (skeletal variations)
[25] = system: Ovis sp.; conditions: uterotrophic; duration: 14 days; injection; Active
[26] = system: Sus scrofa; conditions: subchronic; duration: 90 days; oral; diet; M/F; Not specified; Urinary, Hepatic
[27] = subchronic, duration: 13 weeks, diet, Fischer 344
[28] = subchronic, duration: 13 weeks, oral, diet, B6C3F1
[29] = gavage, M, Sprague-Dawley, Clinical Observation: Salivation (transient) + Functional Observational Battery: Salivation Spontaneous motor activity (total ambulatory …
[30] = duration: 1 days, injection, subcutaneous

For `NC(=Nc1ccccc1)Nc1ccccc1` [1,3-Diphenylguanidine], the LD50 ([1]; oral) was 250 mg/kg and 246 mg/kg, the LD50 [2] was 250 mg/kg and the NOAEL ([3]; developmental, duration: 10 days, gavage, Sprague-Dawley) was 25 mg/kg-day. For the same compound, the NOAEL ([3]; reproduction developmental, duration: 13 weeks, diet, Fischer 344, generation: F0) was 750 ppm, the NOAEL ([3]; reproduction developmental, duration: 10 days, gavage, F, Sprague-Dawley) was 5 mg/kg-day and 10 mg/kg-day and the LOAEL ([3]; short-term, duration: 14 days, diet, Sprague-Dawley) was 300 ppm. The NOAEL ([3]; short-term, duration: 28 days, diet) was 100 ppm, the LOAEL [3, 27] was 72 mg/kg-day and the NOAEL [3, 27] was 48 mg/kg-day. The NOAEL ([3]; subchronic, duration: 90 days, diet, Sprague-Dawley) was 14.4 mg/kg-day, the LD50 ([4]; acute, injection, Intraperitoneal) was 75 mg/kg and ≥ 25 mg/kg and ≤ 50 mg/kg and the NOAEL ([4]; developmental, duration: 19 days, oral, gavage, ICR) was at least 10 mg/kg-day. For the same compound, the NOAEL ([4]; reproduction developmental, duration: 8 weeks, oral, gavage, CD1, generation: F0) was at least 16 mg/kg-day, the NOAEL ([4]; reproduction developmental, duration: 19 days, oral, gavage, F, ICR) was 4 mg/kg-day and the LOAEL [4, 28] was 148 mg/kg-day. For the same compound, the NOAEL [4, 28] was 98.5 mg/kg-day, the NOEL ([5]; diet, F, Fischer 344, Deaths + Clinical Observation: Ruffled fur Emacation Pale skin + Body Weight Changes: decrease + Food Consumption: decrease + Hematology: …) was under 17 mg/kg-day and the NOEL ([5]; diet, M/F, Fischer 344, Deaths + Clinical Observation: Ruffled fur Emacation Pale skin + Body Weight Changes: decrease + Food Consumption: decrease + Hematology: …) was under 24 mg/kg-day. The LD0 [6] was over 2000 mg/kg, the LD0 [7] was 200 mg/kg and the LD0 [8] was 50 mg/kg. It also gave an LD0 [9] of 25 mg/kg, an LD100 ([10]; injection, subcutaneous) of 50 mg/kg and an LD100 ([10]; oral) of 450 mg/kg.
In the case of `Cc1ccncc1` [4-Methylpyridine], the LD50 ([1]; dermal, occlusive, New Zealand) is reported as ≥ 126 mg/kg and ≤ 200 mg/kg, the LD50 ([3]; acute, gavage, Sprague-Dawley) is reported as 841 mg/kg and 700 mg/kg and the LOEL [5, 29] is reported as 20 mg/kg-day. The NOEL [5, 29] was 5 mg/kg-day and the LD40 [11] was ≥ 200 mg/kg and ≤ 316 mg/kg.
In the case of `C[C@H]1CCCC(=O)CCC/C=C/c2cc(O)cc(O)c2C(=O)O1` [Zearalenone], the NOEL ([5]; duration: 13 weeks, diet, M/F, Fischer 344, Body Weight Changes: decrease + Histopathology: Seminal vesicle-Atrophy Bone-Osteopetrosis Pituitary-Hyperplasia Mammary gland-Ductular …) is reported as under 2.88 mg/kg-day, the LEL [12] is reported as 1 mg/kg-day and the LEL ([13]; duration: 3 days, oral) is reported as 0.18 mg/day. For the same compound, the LEL ([13]; duration: 3 days, oral, diet) was 1 mg/kg-day, the LEL ([13]; duration: 8 days, oral) was 1 mg/kg-day and the LEL [14, 30] was 5 mg/kg-day. The LEL ([14]; duration: 7 days, oral) was 1 mg/kg-day, the LEL ([14]; oral) was 2 mg/kg-day and the LOEL [15] was 0.2 mg/kg-day. For the same compound, the NOEL [15] was 0.04 mg/kg-day.
For `c1ccc2c(c1)Nc1ccccc1S2` [Phenothiazine], the NOAEL [16] was 1.59 mg/kg-day.
`O=P(O)(O)CCCl` [Ethephon] showed an LEL [17] of 0.5 mg/kg-day.
With `CCC(C)=O` [Methyl ethyl ketone] the LD5 [18] was 639 mg/kg-day, the NOAEL [19] was 1710 mg/kg-day and the NOAEL [20] was 2980 mg/m3. For the same compound, the LOAEL [21] was 4570 mg/kg-day, the NOAEL [21] was 1770 mg/kg-day and the LOAEL [22] was 292 mg/m3. For the same compound, the LOAEL [23] was 1770 mg/kg-day, the NOAEL [23] was 594 mg/kg-day and the LEC [24] was 5200 mg/m3.
Compound `C[C@]12CC[C@@H]3c4ccc(O)cc4CC[C@H]3[C@@H]1C[C@@H](O)[C@@H]2O` [Estriol] has an LEL [25] of 0.001 mg/day, an LEL ([13]; duration: 0.125 days, injection, subcutaneous) of 0.001 mg/day and an LEL ([13]; duration: 0.25 days, injection, subcutaneous) of 0.001 mg/day. The LEL ([13]; duration: 1 days, dermal) was 3 mg/L, the LEL ([13]; duration: 1 days, injection, intraperitoneal) was 0.001 mg and the “LEL (% (w/w))” value ([13]; duration: 2 days, implant) was 40. The “LEL (pellets)” value ([13]; duration: 2 days, implant) was 4, the LEL ([13]; duration: 2 days, injection, subcutaneous) was 0.01 mg/day and the LEL ([13]; duration: 3 days, oral) was 0.09 mg/kg-day. The “LEL (rat units)” value ([13]; duration: 5 days) was 1, the LEL ([14]; duration: 0.17 days, injection, subcutaneous) was 2.88e-07 mg and the LEL [14, 30] was 0.0761 mg/kg-day. For the same compound, the “LEL (gamma)” value ([14]; duration: 3 days, injection, subcutaneous) was 0.04 and the LEL ([14]; duration: 3 days, oral) was 0.93 mg/kg-day.
In the case of `CCOCCOCCO` [2-(2-Ethoxyethoxy)ethanol], the NOAEL ([5]; duration: 60 days, gavage, M, CD(BR), Deaths + Clinical Observation: Bloody urine LethargyProstration PiloerectionUnkempt hair coat Blood around the mouth and nose + Body Weight …) is reported as 1340 mg/kg-day, the NOAEL ([5]; duration: 90 days, diet, M/F, CFE, Body Weight Changes: Terminal body weight decrease% + Food Consumption: decrease% + Urinalysis: Oxalate crystals increase% + Hematology: …) is reported as 0.5% and the NOAEL [26] is reported as 167 mg/kg-day.

From EPA's ToxValDB 9.5
